Values quoted from earlier work, collected in patent US20080003262A1, “COMPOSITIONS AND THERAPEUTIC METHODS OF USE” (DrugTech Corporation, priority 2006, published 2008).

System: DIV
Conditions: intravaginal 2% clindamycin cream or 10% hydrocortisone

C[C@]12CCC(=O)C=C1CC[C@@H]1[C@@H]2[C@@H](O)C[C@@]2(C)[C@H]1CC[C@]2(O)C(=O)CO [hydrocortisone]
Response of DIV to treatment: responds
